Reference: US4742045A, “Glycopeptide antibiotics” (SmithKline Beckman Corporation, priority 1986, dated 1988)

System: S. haemolyticus
Experiment: mice infected i.p., antibiotic i.v. 1 hr post infection, ED50
Assay type: in vivo
Experimental: In Table 6, below, is shown the ED50 in mg/kg of HPB4 in comparison to vancomycin and teicoplanin. Mice were injected i.p. with the indicated organism and then i.v., 1 hr post infection, with the indicated antibiotic.

Compound	ED50 (Staphylococcus haemolyticus, 1 h)	ED50 (S. haemolyticus 651 (8 × LD50) i.p., antibiotic i.v. 1 hr post infection)
CN[C@H](CC(C)C)C(=O)N[C@H]1C(=O)N[C@@H](CC(N)=O)C(=O)N[C@H]2C(=O)N[C@H]3C(=O)N[C@H](C(=O)N[C@H](C(=O)O)c4cc(O)cc(O)c4-c4cc3ccc4O)[C@H](O)c3ccc(c(Cl)c3)Oc3cc2cc(c3O[C@@H]2O[C@H](CO)[C@@H](O)[C@H](O)[C@H]2O[C@H]2C[C@](C)(N)[C@H](O)[C@H](C)O2)Oc2ccc(cc2Cl)[C@H]1O [Vancomycin, vancomycin]	10 mg/kg	–
teicoplanin	–	> 100 mg/kg
